Read-outs that look alike come from different tables or passages of the source.
How the values were obtained:
[1] = test system: osteoblast enriched rat embryo calvaria cell cultures; assay: Cyclic AMP production in rat embryo calvaria cell cultures; type: cell-based; conditions: 100 nM; 15 min; control 29 ± 2.9 pmol/mg of protein
Summary of the method: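 Osteoblast-enriched rat embryo calvaria cultures stimulated with PTH fragments from the central portion of the molecule. Cyclic AMP measured 15 min after stimulation; CK specific activity measured 24 h after stimulation. Values are means ±S.E.M., N≥5, compared with controls by Student's T test.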

[2] = test system: osteoblast enriched rat embryo calvaria cell cultures; assay: DNA synthesis ([3H]thymidine incorporation) in rat embryo calvaria cell cultures; type: cell-based; conditions: for [3H)Thymidine incorporation, effect of fragment (experimental value/control value): 100 nM, 24 h, control 624 ± 73 c.p.m./μg of DNA
Summary of the method: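 Cultures stimulated with bPTH (1-84); [3H]thymidine incorporation into DNA measured 24 h after stimulation. Values are means ±S.E.M., N≥5, compared with controls by Student's t test.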

[3] = test system: ROS 17/2.8 osteoblast-like cells; assay: DNA synthesis in ROS 17/2.8 osteoblast-like cells; type: cell-based, rat; conditions: control 392 ± 58 c.p.m./μg of DNA
[4] = test system: rat organs (epiphysis, diaphysis, kidney); assay: [3H]thymidine incorporation into DNA in rat organs after i.p. injection; type: in vivo; conditions: 22-24 h after injection
Protocol: FIG. 12 is a graph showing the time course of stimulation by hPTH (1-34) of DNA synthesis in rat organs. Female rats (20-25 days old) were injected i.p. with hPTH-(1-34) (2 μg/rat). At 2 h before the times indicated, the rats were killed and organs were removed and incubated in 2 ml of Dulbecco's modified Eagle's medium containing 5 μl of [^3 H]thymidine. (Amersham: 5 Ci/mmol) for 2 h, then washed with medium and homogenized in deionized distilled water. The total uptake of [^3 H]thymidine and acid-insoluble radioactivity was measured, as well as DNA content, as described below. , Diaphysis; O, epiphysis; Δ; kidney. P<0.01 versus controls.
The pieces were then incubated for 2 h more (the time indicated in FIG. 12) with [^3 H]thymidine (5 μci/ml; 5 Ci/mmol) at 37° C. in Dulbecco's modified Eagle's medium under an atmosphere Of […] /95% air. Total [^3 H]thymidine uptake and incorporation into trichloroacetic acid-insoluble material was measured as described in Biochem. J., 214 (1983) 293-298 (16; Somjen et al.). At no time including the 22 24 h pulse, was there any significant change in the total uptake of [^3 H]thymidine which reflects changes in the thymidine pool which, in turn, could account for changes in incorporation. DNA was determined by the Burton method; cf. Biochem. J., 62 (1956) 315-323 (17; Burton).
To corroborate that under the circumstances of these experiments the increase in CK specific activity in bone is indeed a valid marker of cell proliferation, changes in DNA synthesis were measured by [^3 H]thymidine incorporation; cf. Biochem. J., 272 (1990) 781-785 (18; Somjen et al.). The earliest time at which PTH increased [^3 H]thymidine incorporation was determined by in-jecting rats with an optimal dose of 2 μp of PTH(1-34)/rat, equivalent to 13 nM (FIG. 14) and measuring 2 h pulses of [^3 H)thymidine incorporation into DNA (FIG. 12).

[5] = test system: chondrocytes isolated from the sterna of 16-day-old chicken embryos; assay: Incorporation of 3H-methylthymidine into total DNA of chicken embryo chondrocytes (Examples 1-3); type: cell-based
Excerpt: FIG. 1 is a graph showing the stimulation of chondrocyte DNA synthesis by the addition of PTH and PTH fragments; expressed as the ratio of the rate of incorporation of ^3 H-methylthymidine into the total DNA of the induced cultures to that of the untreated control cultures.
FIGS. 2-6 are graphs showing the dosage/effect curves for the mitogenic activity of PTH and PTH fragments;
FIG. 1: In order to determine the incorporation of ^3 H-methylthymidine into total DNA the cells were cultivated on microtiter plates in M199 medium at a concentration of foetal calf serum (FCS) of less than 0.5% (by volume). The cell density of the chondrocytes that reacted to the addition of PTH with an increase in the incorporation of ^3 H-methylthymidine into the total DNA was from 1250 to 6000 cells/microtitre well (diameter 6 mm) at the time of plating-out. […] The incorporation of ^3 H-methylthymidine into the total DNA was determined as follows. After removing the radioactive medium, the adherent growing chondrocytes were washed with PBS and lysed in the microtitre wells. The total DNA was then precipitated under acid conditions at low temperature and transferred onto filter papers using a semi-automatic harvesting device. The rate of incorporation into total DNA could then be determined; cf. FIG. 1. […]

[6] = test system: chondrocytes isolated from the sterna of 16-day-old chicken embryos; assay: Determination of cell number of chondrocyte cultures; type: cell-based; conditions: induced for 24 hours; non-induced 41,000 cells/ml
Protocol: FIG. 7 is a comparative graph showing cell number after incubation of the non-induced cultures compared to cultures induced with hPTH (28-48) for 24 hours.
FIG. 1: In order to determine the incorporation of ^3 H-methylthymidine into total DNA the cells were cultivated on microtiter plates in M199 medium at a concentration of foetal calf serum (FCS) of less than 0.5% (by volume). The cell density of the chondrocytes that reacted to the addition of PTH with an increase in the incorporation of ^3 H-methylthymidine into the total DNA was from 1250 to 6000 cells/microtitre well (diameter 6 mm) at the time of plating-out. […] The incorporation of ^3 H-methylthymidine into the total DNA was determined as follows. After removing the radioactive medium, the adherent growing chondrocytes were washed with PBS and lysed in the microtitre wells. The total DNA was then precipitated under acid conditions at low temperature and transferred onto filter papers using a semi-automatic harvesting device. The rate of incorporation into total DNA could then be determined; cf. FIG. 1. […] The concentration for semi-maximum stimulation was from 9 to 15 nM for bPTH(1-84) and from 50 to 75 nM for the PTH fragments bPTH(1-34) and bPTH(3-34). In contrast, the PTH fragment hPTH(28-48), which, according to Adv. Protein Chemistry, 35 (1982) 323 ff.

ROS 17/2.8 cells = assay: Inhibition of bPTH(1-34)-stimulated cAMP synthesis of intact ROS 17/2.8 cells; type: cell-based, rat; conditions: 30 nM hPTH(28-48) added to 100 nM bPTH(1-34); 1 mM IBMX; 10 min
Protocol: FIG. 9 is a graphical representation showing the cAMP yields [nitrogenic effect of bPTH (1-34].
100 nM bPTH(1-34) were used to stimulate cAMP synthesis of intact ROS 17/2.8 cells (cell density 1.3×10^6 cells/cm^2) in the presence of 1 mM IBMX for 10 min. cAMP yields were determined by radio assay. Based on the conditions mentioned, the cAMP basal value of non-stimulated cells corresponds to 8 pmol/well. This effect of bPTH(1-34) can be inhibited by an additional doses of 30 nM hPTH(28-48) up to about 50%; cf. FIG. 9.

renal adenylate cyclase = conditions: Adv. Protein Chemistry 35 (1982) 323 ff. (Potts et al.), cited from earlier work
renal PTH receptor = conditions: Adv. Protein Chemistry 35 (1982) 323 ff. (Potts et al.); cited from earlier work

Substance	Cyclic AMP concentration, effect of fragment (experimental value/control value) [1]	stimulation of DNA synthesis (in words) [2]	[3H)Thymidine incorporation, effect of fragment (experimental value/control value) [2]	[^3 H]Thymidine incorporation, effect of fragment (experimental value/control value) ([3]; 200 nM)	potency in stimulating [^3 H]thymidine incorporation in diaphysis and epiphysis (in words) [4]	EC50 ([5]; 3H-methylthymidine incorporation into total DNA, read-out: concentration for semi-maximum stimulation) [µM]	increase in the incorporation of 3H-methylthymidine into total DNA by a factor ([5]; ratio induced / untreated control cultures, depending on concentration)	total cell number [6]	inhibition of the cAMP synthesis stimulated by bPTH(1-34) (ROS 17/2.8 cells)	[^3 H]Thymidine incorporation, effect of fragment (experimental value/control value) ([3]; 400 nM)	stimulation of renal adenylate cyclase (renal adenylate cyclase)	stimulation of renal adenylate cyclase (renal adenylate cyclase; listed as hPTh(28-48))	binding to the renal PTH receptor (renal PTH receptor)	[^3 H]Thymidine incorporation, effect of fragment (experimental value/control value) ([3]; 500 nM)
hPTH(25-39): PTH fragment 25-39, human source (RKKLQDVHNFVALGA; Parathyroid hormone; UniProt P01270 56-70, looked up, fragment)	0.87 ± 0.30	maximal	2.96 ± 0.18	1.36 ± 0.08	as potent as hPTH(28-48)									
hPTH(28-48): mid-regional PTH fragment 28-48, human source (LQDVHNFVALGAPLAPRDAGS; Parathyroid hormone; UniProt P01270 59-79, looked up, fragment)	1.22 ± 0.09	maximal	2.82 ± 0.18		as potent as bPTH(1-84)	0.349	6	63,000 cells/ml	about 50%	1.56 ± 0.12	does not stimulate renal adenylate cyclase	will not stimulate renal adenylate cyclase	does not bind to the renal PTH receptor	
hPTH(34-47): PTH fragment 34-47, human source; comparative example (FVALGAPLAPRDAG; Parathyroid hormone; UniProt P01270 65-78, looked up, fragment) [reference compound]					inactive									1.05 ± 0.11
